According to publication PMC3901262 (Investigational new drugs, 2013):
Each block holds one molecule with its values, some of them ahead of it.

Tests used:
[1] = tested on: patients with advanced solid tumors; experiment: Phase I dose escalation: toxicity, DLT and MTD; type: in vivo, human
[2] = tested on: refractory NSCLC; settings: single agent; ref [36]; cited from earlier work
[3] = Plasma pharmacokinetics of vorinostat and metabolites; type: in vivo, human; settings: for Cmax / AUC / Cl/F / Tmax / AUC (0-infinity) / T1/2: plasma; for AUC: Mean AUC
[4] = C1D1, vorinostat 400 mg oral alone (single dose)
[5] = C1D2, vorinostat 400 mg oral + bortezomib
[6] = C1D12, vorinostat 400 mg oral steady state, with bortezomib

SMILES: O=C(CCCCCCC(=O)Nc1ccccc1)NO [vorinostat, suberoylanilide hydroxamic acid]
- MTD, vorinostat ([1]; orally daily days 1-14 of 21-day cycle, with bortezomib): 400 mg
- objective antitumor activity [2]: no objective antitumor activity
- AUC and Cmax in individuals experiencing a DLT compared with no DLT ([3]; all days of treatment, p < 0.05): significantly higher
- AUC and Cmax on day 12 compared with day 1 ([3]; cycle 1, steady state vs single dose, p < 0.05): significantly higher
- day 1 compared with day 2 plasma concentrations (influence of bortezomib) ([3]; cycle 1, vorinostat alone vs vorinostat + bortezomib): no difference
- Cmax ([3]; human, oral, 400 mg, Cmax, C1D1, patients with DLT (3)): 551 ± 174 ng/mL
- AUC ([3]; human, oral, 400 mg, C1D1, patients with DLT (3)): 1450 ± 277 ng·h/mL
- AUC ([3]; human, oral, 400 mg, C1D1, patients with No DLT (16)): 999 ± 438 ng·h/mL
- Cmax ([3]; human, oral, Cmax, C1D2, patients with DLT (3)): 675 ± 363 ng/mL
- Cmax ([3]; human, oral, Cmax, C1D12, patient with DLT (1)): 905 ng/mL
- Cmax ([3]; human, oral, Cmax, C1D12, patients with No DLT (13)): 448 ± 314 ng/mL
- AUC ([3]; human, oral, C1D2, patients with DLT (3)): 1790 ± 436 ng·h/mL
- AUC ([3]; human, oral, C1D2, patients with No DLT (16)): 983 ± 418 ng·h/mL
- AUC ([3]; human, oral, C1D12, patient with DLT (1)): 2230 ng·h/mL
- AUC ([3]; human, oral, C1D12, patients with No DLT (13)): 1410 ± 962 ng·h/mL
- Cl/F [3, 4]: 6.4 ± 3.2 L/min
- Cl/F [3, 5]: 11 ± 4.1 L/min
- Cl/F [3, 6]: 13 ± 3.3 L/min

- mean baseline plasma concentration ([3]; Day 2, before vorinostat dose): 130 ± 68 ng/mL
- Cmax [3, 4]: 815 ± 282 ng/mL
- Tmax [3, 4]: 2.8 ± 1.4 h
SMILES: O=C(O)CCC(=O)Nc1ccccc1 [Vorinostat acid, 4-anilino-4-oxobutanoic acid]

SMILES: CC(C)C[C@H](NC(=O)[C@H](Cc1ccccc1)NC(=O)c1cnccn1)B(O)O [bortezomib]
- MTD, bortezomib ([1]; IV days 1, 4, 8, 11 of 21-day cycle, with vorinostat 400 mg): 1.3 mg/m^2

- AUC (0-infinity) [3, 4]: 4843 ± 3034 ng·h/mL
- Cmax [3, 4]: 1153 ± 922 ng/mL
- T1/2 [3, 4]: 1.9 ± 1.4 h
- Tmax [3, 4]: 1.9 ± 1.0 h
- AUC (0-infinity) [3, 5]: 5283 ± 2915 ng·h/mL
- Cmax [3, 5]: 1225 ± 496 ng/mL
- T1/2 [3, 5]: 1.6 ± 0.5 h
- Tmax [3, 5]: 3.2 ± 1.8 h
- AUC (0-infinity) [3, 6]: 4169 ± 1548 ng·h/mL
- Cmax [3, 6]: 849 ± 479 ng/mL
- T1/2 [3, 6]: 2.0 ± 0.8 h
- Tmax [3, 6]: 2.0 ± 1.0 h
SMILES: O=C(CCCCCCC(=O)Nc1ccccc1)NO[C@@H]1O[C@H](C(=O)O)[C@@H](O)[C@H](O)[C@H]1O [Vorinostat glucuronide, vorinostat glucuronide]
